According to patent US20260109694A1, “HETEROCYCLIC COMPOUNDS AND USES THEREOF” (Kumquat Biosciences Inc., priority 2023, published 2026):
pIC50: −log10 of the molar value.

Assays:
[1] = molecular target: T1, PTPN2 (Homo sapiens, UniProt P17706); assay: Phosphatase activity assay (DiFMUP substrate); assay type: biochemical; settings: value bin printed in column head
T1 sequence (P17706 1-415): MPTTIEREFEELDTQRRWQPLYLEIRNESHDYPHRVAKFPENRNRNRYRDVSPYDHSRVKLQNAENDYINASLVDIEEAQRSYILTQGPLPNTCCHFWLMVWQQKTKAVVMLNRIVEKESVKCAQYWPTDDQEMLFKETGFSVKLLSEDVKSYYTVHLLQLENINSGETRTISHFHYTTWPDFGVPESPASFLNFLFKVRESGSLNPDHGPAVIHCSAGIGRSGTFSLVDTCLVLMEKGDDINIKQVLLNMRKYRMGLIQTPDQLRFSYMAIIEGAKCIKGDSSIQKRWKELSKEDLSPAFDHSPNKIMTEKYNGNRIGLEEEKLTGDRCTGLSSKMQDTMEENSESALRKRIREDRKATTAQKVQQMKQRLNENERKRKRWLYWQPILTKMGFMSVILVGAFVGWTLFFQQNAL
Protocol: (§1) The selectivity and potency of a small molecule PTPN2 inhibitor as provided herein against one or more protein tyrosine phosphatase (PTP) enzymes, and specifically against PTPN2, is assessed in various ways. The one or more PTP enzymes comprise Mycobacterium protein tyrosine phosphatase A (mPTPA), Mycobacterium protein tyrosine phosphatase B (mPTPB), PTPN1 (i.e., PTP1B), PTPN2 (i.e., TC-PTP), PTPN22 (i.e., LYP), SHP-1, SHP-2, FAP-1, Meg2, HePTP, Laforin, VHX, VHR, LMWPTP, Cdc14A, LAR, CD45, PTPRG, a fragment thereof, a variant thereof, and a combination thereof. Selectivity and potency of a small molecule PTPN2 inhibitor is evaluated using a PTP activity inhibition assay. The assay is performed using a buffer comprising 50 mM HEPES buffer pH 7.5, 150 mM NaCl, 0.5 mM EDTA, 1 mM DTT, 0.001% Tween-20.
(§2) The assay is performed using a phosphated substrate, e.g., 10 mM 6,8-Difluoro-4-Methylumbelliferyl Phosphate (DIFMUP) that is stored at −20° C. Alternatively or in addition to, the assay is performed using other phosphated substrate (e.g., fluorescein diphosphate). Each PTP enzyme is diluted in the assay buffer
(§3) The assay can be carried out at room temperature in multiplate format, e.g., using 384 well plates. A small molecule PTPN2 inhibitor dissolved in DMSO at one of 10 concentrations from a serial dilution or DMSO alone for control is added to each well. A mixture of the assay buffer comprising PTP enzyme (e.g., 0.025 ng/ul PTPN2) is added to each well and mixed for approximately 2 minutes. The reaction is initiated by adding DiFMUP diluted in the assay buffer to a final concentration of approximately 45 µM DiFMUP in PTPN2 assay. For each PTP enzyme, DiFMUP is added at the Km (Michaelis constant) of the enzyme that had been independently determined. The phosphatase activity of the PTP enzyme is assessed by monitoring appearance of a fluorescent product (6,8-difluoro-7-hydroxyl-4-coumarin (DiFMU) from DiFMUP) continuously for about 15 to 30 minutes, using the INFINITE M1000Pro plate reader (Tecan) with excitation at 360 nm and emission at 450 nm (cutoff filter at 435 nm) for DiFMU. Each assay is performed at least in duplicate. The rate (e.g., the initial rate) of DiFMU formation is plotted against the concentration of the small molecule PTPN2 inhibitor, and the data is fitted (e.g., using a 4-parameter equation) to determine the inflection point of the fit as the IC50 of the small molecule PTPN2 inhibitor for a specific enzyme. Utilizing this assay, the ability of the compounds in Table 1 to inhibit PTPN2 and PTP1B has been assessed. Table 3 summarizes the IC50 values.

[2] = molecular target: T2, PTP1B (Homo sapiens, UniProt P18031); assay: Phosphatase activity assay (DiFMUP substrate); assay type: biochemical; settings: value bin printed in column head
T2 sequence (P18031 1-435): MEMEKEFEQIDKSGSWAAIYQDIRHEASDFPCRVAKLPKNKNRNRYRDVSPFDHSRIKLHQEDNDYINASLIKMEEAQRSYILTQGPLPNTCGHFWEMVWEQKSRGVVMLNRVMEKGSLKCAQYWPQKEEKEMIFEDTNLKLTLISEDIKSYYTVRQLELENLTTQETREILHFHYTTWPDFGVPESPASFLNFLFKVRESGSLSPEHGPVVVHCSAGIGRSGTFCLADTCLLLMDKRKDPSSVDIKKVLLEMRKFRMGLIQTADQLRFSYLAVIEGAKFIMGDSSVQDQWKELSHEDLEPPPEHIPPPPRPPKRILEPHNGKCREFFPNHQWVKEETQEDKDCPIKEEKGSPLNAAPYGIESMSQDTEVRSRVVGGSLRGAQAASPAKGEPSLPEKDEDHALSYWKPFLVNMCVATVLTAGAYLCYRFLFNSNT
Protocol: as §1, §2, §3

| Structure (SMILES) | pIC50 [1] | pIC50 [2] |
| --- | --- | --- |
| O=C1CN(c2c(O)ccc(C3=C[C@H](CCC4CCC4)NC3)c2F)S(=O)(=O)N1 [Compound 134, (S)-5-(3-(5-(2-cyclobutylethyl)-2,5-dihydro-1H-pyrrol-3-yl)-2-fluoro-6-hydroxyphenyl)-1,2,5-thiadiazolidin-3-one 1,1-dioxide] | ≥ 6.00 | ≥ 6.00 |
| NC1CCCC1c1ccc(O)c(N2CC(=O)NS2(=O)=O)c1F (centres unmarked) [Compound 112, 5-(3-(2-aminocyclopentyl)-2-fluoro-6-hydroxyphenyl)-1,2,5-thiadiazolidin-3-one 1,1-dioxide] | < 6.00 | < 6.00 |
| CC(C)CC[C@H]1C=C(c2ccc(O)c(N3CC(=O)NS3(=O)=O)c2F)CN1C(=O)O[C@H](C)OC(=O)C(C)C [Compound 148, (R)-1-(isobutyryloxy)ethyl (S)-4-(3-(1,1-dioxido-4-oxo-1,2,5-thiadiazolidin-2-yl)-2-fluoro-4-hydroxyphenyl)-2-isopentyl-2,5-dihydro-1H-pyrrole-1-carboxylate] | ≥ 6.00 | ≥ 6.00 |
| CC(C)CC[C@H]1C=C(c2ccc(O)c(N3CC(=O)NS3(=O)=O)c2F)CN1C(=O)OC(OC(=O)[C@@H](N)C(C)C)C(C)C (stereo partly drawn) [Compound 162, 1-((L-valyl)oxy)-2-methylpropyl (2S)-4-(3-(1,1-dioxido-4-oxo-1,2,5-thiadiazolidin-2-yl)-2-fluoro-4-hydroxyphenyl)-2-isopentyl-2,5-dihydro-1H-pyrrole-1-carboxylate] | ≥ 6.00 | ≥ 6.00 |
| CC(C)CC[C@H]1C=C(c2ccc(O)c(N3CC(=O)NS3(=O)=O)c2F)CN1C(=O)OC(OC(=O)[C@H](N)C(C)C)C(C)C (stereo partly drawn) [Compound 146, 1-((D-valyl)oxy)-2-methylpropyl (2S)-4-(3-(1,1-dioxido-4-oxo-1,2,5-thiadiazolidin-2-yl)-2-fluoro-4-hydroxyphenyl)-2-isopentyl-2,5-dihydro-1H-pyrrole-1-carboxylate] | ≥ 6.00 | ≥ 6.00 |
| O=C1CN(c2c(O)ccc(C3=CC(CCCC4CC4)NC3)c2F)S(=O)(=O)N1 (centres unmarked) [Compound 123, 5-(3-(5-(3-cyclopropylpropyl)-2,5-dihydro-1H-pyrrol-3-yl)-2-fluoro-6-hydroxyphenyl)-1,2,5-thiadiazolidin-3-one 1,1-dioxide] | ≥ 6.00 | ≥ 6.00 |
| CC(=O)OC(C)OC(=O)N1CC(c2ccc(O)c(N3CC(=O)NS3(=O)=O)c2F)=C[C@H]1CCC1CCC1 (stereo partly drawn) [Compound 164, 1-acetoxyethyl (2R)-2-(2-cyclobutylethyl)-4-(3-(1,1-dioxido-4-oxo-1,2,5-thiadiazolidin-2-yl)-2-fluoro-4-hydroxyphenyl)-2,5-dihydro-1H-pyrrole-1-carboxylate] | ≥ 6.00 | ≥ 6.00 |
| CC(C)(C)CC[C@H]1C=C(c2ccc(O)c(N3CC(=O)NS3(=O)=O)c2F)CN1 [Compound 120, (S)-5-(3-(5-(3,3-dimethylbutyl)-2,5-dihydro-1H-pyrrol-3-yl)-2-fluoro-6-hydroxyphenyl)-1,2,5-thiadiazolidin-3-one 1,1-dioxide] | ≥ 6.00 | ≥ 6.00 |
| O=C1CN(c2c(O)ccc(C3=CC(C4CCC4)NC3)c2F)S(=O)(=O)N1 (centres unmarked) [Compound 125, 5-(3-(5-cyclobutyl-2,5-dihydro-1H-pyrrol-3-yl)-2-fluoro-6-hydroxyphenyl)-1,2,5-thiadiazolidin-3-one 1,1-dioxide] | ≥ 6.00 | ≥ 6.00 |
| O=C1CN(c2c(O)ccc(CC3CCNCC3)c2F)S(=O)(=O)N1 [Compound 127, 5-(2-fluoro-6-hydroxy-3-(piperidin-4-ylmethyl)phenyl)-1,2,5-thiadiazolidin-3-one 1,1-dioxide] | ≥ 6.00 | ≥ 6.00 |
| O=C1CN(c2c(O)ccc(C(=O)NC3CCNC3)c2F)S(=O)(=O)N1 (centres unmarked) [Compound 136, 3-(1,1-dioxido-4-oxo-1,2,5-thiadiazolidin-2-yl)-2-fluoro-4-hydroxy-N-(pyrrolidin-3-yl)benzamide] | < 6.00 | < 6.00 |
| O=C1CN(c2c(O)ccc(C3=CC(C4CC4)NC3)c2F)S(=O)(=O)N1 (centres unmarked) [Compound 109, 5-(3-(5-cyclopropyl-2,5-dihydro-1H-pyrrol-3-yl)-2-fluoro-6-hydroxyphenyl)-1,2,5-thiadiazolidin-3-one 1,1-dioxide] | ≥ 6.00 | ≥ 6.00 |
| CC(=O)OC(OC(=O)N1CC(c2ccc(O)c(N3CC(=O)NS3(=O)=O)c2F)=C[C@H]1CCC1CCC1)C(C)C (stereo partly drawn) [Compound 157, 1-acetoxy-2-methylpropyl (2R)-2-(2-cyclobutylethyl)-4-(3-(1,1-dioxido-4-oxo-1,2,5-thiadiazolidin-2-yl)-2-fluoro-4-hydroxyphenyl)-2,5-dihydro-1H-pyrrole-1-carboxylate] | ≥ 6.00 | ≥ 6.00 |
| CC(C)CC[C@H]1C=C(c2ccc(O)c(N3CC(=O)NS3(=O)=O)c2F)CN1C(=O)OC(C)OC(=O)C(C)C (stereo partly drawn) [Compound 165, 1-(isobutyryloxy)ethyl (2S)-4-(3-(1,1-dioxido-4-oxo-1,2,5-thiadiazolidin-2-yl)-2-fluoro-4-hydroxyphenyl)-2-isopentyl-2,5-dihydro-1H-pyrrole-1-carboxylate] | ≥ 6.00 | ≥ 6.00 |
| O=C1CN(c2c(O)ccc(OC3CCNC3)c2F)S(=O)(=O)N1 (centres unmarked) [Compound 142, 5-(2-fluoro-6-hydroxy-3-(pyrrolidin-3-yloxy)phenyl)-1,2,5-thiadiazolidin-3-one 1,1-dioxide] | < 6.00 | ≥ 6.00 |
| CC(C)CC[C@H]1C=C(c2ccc(O)c(N3CC(=O)NS3(=O)=O)c2F)CN1C(=O)O[C@@H](C)OC(=O)C1CCCC1 [Compound 152, (S)-1-((cyclopentanecarbonyl)oxy)ethyl (S)-4-(3-(1,1-dioxido-4-oxo-1,2,5-thiadiazolidin-2-yl)-2-fluoro-4-hydroxyphenyl)-2-isopentyl-2,5-dihydro-1H-pyrrole-1-carboxylate] | < 6.00 | ≥ 6.00 |
| O=C1CN(c2c(O)ccc(C3=CC4CCCN4C3)c2F)S(=O)(=O)N1 (centres unmarked) [Compound 139, 5-(2-fluoro-6-hydroxy-3-(2,3,5,7a-tetrahydro-1H-pyrrolizin-6-yl)phenyl)-1,2,5-thiadiazolidin-3-one 1,1-dioxide] | ≥ 6.00 | ≥ 6.00 |
| O=C1CN(c2c(O)ccc(C3=CC(CCCC(F)F)NC3)c2F)S(=O)(=O)N1 (centres unmarked) [Compound 137, 5-(3-(5-(4,4-difluorobutyl)-2,5-dihydro-1H-pyrrol-3-yl)-2-fluoro-6-hydroxyphenyl)-1,2,5-thiadiazolidin-3-one 1,1-dioxide] | ≥ 6.00 | ≥ 6.00 |
| CC(C)OC(=O)N1CC(c2ccc(O)c(N3CC(=O)NS3(=O)=O)c2F)=C[C@H]1CCC1CCC1 [Compound 166, isopropyl (R)-2-(2-cyclobutylethyl)-4-(3-(1,1-dioxido-4-oxo-1,2,5-thiadiazolidin-2-yl)-2-fluoro-4-hydroxyphenyl)-2,5-dihydro-1H-pyrrole-1-carboxylate] | ≥ 6.00 | ≥ 6.00 |
